Experimental data reported in US20260335282A1, “NOVEL 3-ARYLIDENE-2-INDOLINONE DERIVATIVES FOR THERAPEUTIC USE” (ISTANBUL UNIVERSITESI REKTORLUGU, priority 2022, published 2026).
pIC50: −log10 of the molar value. Where two headings read alike, the source gives them in different places.

Columns and labels:
Type in all cases: cell-based, human
HUVEC cells = test: MTT cytotoxicity, healthy cells HUVEC; conditions: for pIC50: MTT, no * mark (incubation time not specified)
Text: (§1) The cytotoxicity, general tyrosine kinase inhibitory effects and cell death (apoptosis/necrosis) assays of 1-benzyl-3-(1H-indol-3-ylmethylidene)-1,3-dihydro-2H-indol-2-one derivatives (Formula 5) of the present invention are studied by the following methods. […] HUVEC (human umbilical vein endothelial cell), MCF-10F (human breast epithelial cell) and Beas2b (human lung bronchial epithelial cell) cell lines have been used as healthy control cells in MTT experiments.
(§2) Beas2b (human lung bronchiole epithelial cell) and HEK293 (renal tubule epithelium) cells used as normal cell lines were cultured in RPMI medium, and HUVEC (human umbilical cord endothelial cells) and MCF-10F (human breast epithelial cell) cells are cultured in DMEM medium containing 100 µg/ml penicillin/streptomycin. The cells, which covered 70% of the culture flask, are washed with phosphate buffer and then removed from the surface of the flask by application of trypsin-ethylenediamine tetraacetic acid (Trypsin-EDTA; 0.25%) solution, passaged, counted and seeded on appropriate plates before each experiment. Cells are treated with a total of 45 2-indolinone compounds (5) at concentrations of 0.1, 1, 5 and 10 μM. Stock compounds are prepared in 1 ml dimethylsulfoxide (DMSO) and 4 different dilutions were prepared with medium and performed to the cells. Control group cells are treated with DMSO at a similar concentration to the experimental groups.
(§3) MTT (3-(4,5-dimethylthiazol-2-yl)-2,5-diphenyl-2H-tetrazolium bromide) colorimetric assay provides quantitation of viable cells with ongoing mitochondrial activity in culture medium. According to the standard procedure in cell culture conditions, cells are maintained in RPMI-1640 and DMEM culture media containing 10% FBS and 1% penicillin/streptomycin. The trypan blue test is used for cell counts.
(§4) The effects of 45 2-indolinone compounds (5) on cell viability in all cancer cell lines are investigated by MTT assay. Cells are seeded in a 96-well flat bottom plate with 5000 cells in each well and 2-indolinone compounds (5) at concentrations of 0.1, 1, 5 and 10 μM are performed to the cells the next day. After 48 and/or 72 hours following treatment with 2-indolinone compounds, 50 μl of the supernatant is slowly discarded (as it was acid medium) and MTT at a concentration of 5 mg/ml is added to each well in a volume of 10 μl. After incubation for 4 hours, the formazan crystals formed in the wells are dissolved by adding 100 μl DMSO and the optical density is read at 570 nm test wavelength and 630 nm reference wavelength. Cell viability is expressed as % cell viability by comparing the absorbance of control and test wells. IC50 value is calculated from the dose-response curves prepared for each compound. In addition, the possible DMSO effect is eliminated by preparing negative control wells compatible with the amount of DMSO contained in the compounds. To understand the reaction of the compounds with MTT, cell-free (MTT+compounds) negative controls are prepared at the concentrations used (Mosmann, 1983). […] The absorbance values obtained are compared to the control and statistically evaluated by unpaired t-test using “Graphpad Prism 5.04” software. “P<0.05” is accepted as significant. When evaluating cytotoxic effects, the present inventors aim for the inventive compounds to be effective in cancer cells and ineffective in healthy cells. The inventive compounds have also been compared with sunitinib, one of the reference chemotherapy drugs currently used in treatment.
(§5) Among the compounds of the present invention, those that killed cancer cells by at least 50% (p<0.05) are selected and tested whether a 10-fold concentration of the M concentration at the IC50 value is toxic to normal healthy cells.

[1] = test system: general tyrosine kinase activity in MIA PaCa-2 pancreas cancer cells; test: General tyrosine kinase activity (ELISA) in MIAPaCa-2 cells; conditions: 72 hours, IC50 concentration
Protocol: Takara Universal Tyrosine Kinase Assay Kit is used to determine the effects of 11 2-indolinone compounds (Y1, Y2, Y3, Y4, Y5, Y8, […], […], Y21, Y23, 20C, 22C) on general tyrosine kinase activity in cancer cells. Cells are seeded in 6-well plates (4.10^5 cells/well) and the IC50 concentration of each selected molecule is performed to the cells for 48 or 72 hours. Cells in the control group are incubated with medium only. At the end of the incubation period, the cells in each well are washed with PBS and cells are removed from the wells using a cell scraper via 1 ml of the extraction buffer in the kit. The cell lysate is transferred to ependorf tubes and centrifuged at 10.000 g for 10 minutes at +4° C. and the supernatant is used as a sample for activity determination. After the extracts obtained from the control and experimental groups are diluted 1:25, 40 μl extracts is transferred to two wells in the 96-well plate in the kit. In addition, the standard solution in the kit is diluted according to the kit instructions and each concentration is transferred 40 μl into three wells. 10 μl of 40 mM ATP-2Na solution is added to all wells and the plate is incubated at 37° C. for 30 minutes. After incubation, all wells are washed 4 times with wash buffer. 100 μl of blocking solution is added to each well and incubated again at 37° C. for 30 minutes. After incubation, the liquid in the wells is discarded and 50 μl of anti-phosphotyrosine-HRP solution is added to each well and incubated at 37° C. for 30 minutes. The wells are washed again four times with wash buffer and 100 μl of HRP-substrate solution (TMBZ) is added to each well and incubated at 37° C. for 15 minutes. The reaction is finished by adding 100 μl of stop solution to each well and the optical density in each well is measured at 405 nm with a microplate reader (BioTek, USA). The tyrosine kinase activity in each sample is calculated from the standard curve obtained from the absorbance values of the standard solutions with the kit (Chan W Y, Lau P M, Yeung K W, Kong S K. The second generation tyrosine kinase inhibitor dasatinib induced eryptosis in human erythrocytes—An in vitro study. Toxicol Lett. 2018; 295:10-21). This activity is normalized compared to the control group by dividing by the amount of protein in each sample.
The effects of 11 2-indolinone compounds (Y1, Y2, Y3, Y4, Y5, Y8, Y14, Y21, Y23, 20C and 22C) having the structure of formula (5), which are prominent with their cytotoxicity in A498, MIAPaCa-2 and HCT-116 cancer cell lines and nontoxic properties in healthy cells, on general tyrosine kinase activity in cancer cells are determined.

MIAPaCa-2 cells = test: MTT cytotoxicity, pancreas cancer cells MIAPaCa-2; conditions: for pIC50: MTT
Text: as §1, §2, §3, §4

MCF-10F/Beas2b cells = test: MTT cytotoxicity, healthy cells MCF-10F/Beas2b; conditions: for pIC50: MTT
Text: as §1, §2, §3, §4, §5

MDA-MB-231 cells = test: MTT cytotoxicity, breast cancer cells MDA-MB-231; conditions: read-out: IC50, MDA-MB-231 (breast), MTT
Text: as §1, §2, §3, §4, §5

CAKI-1 cells = test: MTT cytotoxicity, kidney cancer cells CAKI-1
Text: as §1, §2, §3, §4, §5

A549 cells = test: MTT cytotoxicity, lung cancer cells A549; conditions: no * mark (incubation time not specified)
Text: as §1, §2, §3, §4, §5

HT-29 cells = test: MTT cytotoxicity, colon cancer cells HT-29; conditions: MTT, no * mark (incubation time not specified)
Text: as §1, §2, §3, §4

A498 cells = test: MTT cytotoxicity, kidney cancer cells A498; conditions: MTT
Text: as §1, §2, §3, §4, §5

MCF-7 cells = test: MTT cytotoxicity, breast cancer cells MCF-7; conditions: MTT
Text: as §1, §2, §3, §4, §5

HCT-116 cells = test: MTT cytotoxicity, colon cancer cells HCT-116; conditions: no * mark (incubation time not specified)
Text: as §1, §2, §3, §4

[2] = no * mark (incubation time not specified)
[3] = no * mark (incubation time not given)
[4] = *: effective 72 hours after incubation

Row | Compound | pIC50 (HUVEC cells) | pIC50 (MIAPaCa-2 cells; [2]) | pIC50 (MDA-MB-231 cells; [3]) | pIC50 (A549 cells) | pIC50 (HT-29 cells) | pIC50 (A498 cells; [2]) | pIC50 (MCF-7 cells; [2]) | pIC50 (HCT-116 cells) | pIC50 (MCF-10F/Beas2b cells; [2]) | pIC50 (CAKI-1 cells; [4]) | further results
1 | Cc1ccc(CN2C(=O)/C(=C\c3c[nH]c4ccccc34)c3ccccc32)cc1 [Y21] | 5.61 | 6.40 | < 5.00 | < 5.00 | < 5.00 | 5.39 | 5.06 | 5.50 | – | – | Selectivite Index, HUVEC (Table 2) (HUVEC cells; HUVEC vs colon or pancreas cancer cells, cancer line not given): 6.15; general tyrosine kinase activity compared to control [1]: significantly decreased; selectivity index (MIAPaCa-2 cells; MCF-10F/Beas2b vs MIAPaCa-2): > 25; pIC50 (MIAPaCa-2 cells): 6.40; Selectivite Index, MCF-10F/Beas2b (Table 2) (MCF-10F/Beas2b cells; MCF-10F/Beas2b vs colon or pancreas cancer cells, cancer line not given): > 25.00; pIC50 (CAKI-1 cells; [2]): < 5.00
2 | O=C1/C(=C\c2c[nH]c3ccccc23)c2cccc(Cl)c2N1Cc1cccc(Cl)c1 [25C] | 5.74 | – | < 5.00 | < 5.00 | < 5.00 | 5.54 | 5.35 | 5.54 | 5.74 | 5.09 | pIC50 (MIAPaCa-2 cells; [4]): 5.49
3 | Cc1ccc(CN2C(=O)/C(=C\c3c[nH]c4ccccc34)c3cc(F)ccc32)cc1 [Y25] | 6.89 | 5.94 | 5.47 | 5.48 | < 5.00 | 5.50 | – | 5.84 | 5.57 | 5.15 | pIC50 (MCF-7 cells; [4]): 5.32
4 | O=C1/C(=C\c2c[nH]c3ccccc23)c2cc(F)ccc2N1Cc1ccc(F)cc1 [10C] | 5.33 | 5.56 | – | 5.46 | 5.64 | 5.42 | < 5.00 | 5.40 | 5.52 | 5.17 | pIC50 (MDA-MB-231 cells; [4]): 5.09
5 | O=C1/C(=C\c2c[nH]c3ccccc23)c2cccc(Cl)c2N1Cc1ccc(F)cc1 [24C] | 5.90 | 5.95 | 5.13 | 5.09 | 6.14 | 5.59 | 5.29 | 5.63 | 5.90 | 5.24 | –
6 | Cc1ccc(CN2C(=O)/C(=C\c3c[nH]c4ccccc34)c3cccc(Cl)c32)cc1 [28C] | < 5.00 | < 5.00 | < 5.00 | < 5.00 | < 5.00 | – | < 5.00 | < 5.00 | – | 5.12 | Selectivite Index (SI), HUVEC (Table 1) (HUVEC cells; HUVEC vs breast or kidney cancer cells, cancer line not given): > 15.6; Selectivite Index (SI), MCF-10F/Beas2b (Table 1) (MCF-10F/Beas2b cells; MCF-10F/Beas2b vs breast or kidney cancer cells, cancer line not given): 1.5; pIC50 (MCF-10F/Beas2b cells; [4]): 5.75; pIC50 (A498 cells; [4]): 6.22
